Measured values taken from ChEMBL document CHEMBL1201862, “PubChem BioAssay data set” (2004).
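How tested: cells in 96-well plates exposed to compound for 48 hours at five concentrations. The concentration for 50% growth inhibition is given as GI50.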 The source made the active and inactive calls. Rule as the data show it: active = GI50 up to about 1.1 µM and inactive = higher.

Assays:
Assay in all cases: DTP human tumour cell line panel, 48 h
[1] = tested on: M19-MEL
[2] = tested on: LOX IMVI
[3] = tested on: 786-0
[4] = tested on: CCRF-CEM
[5] = tested on: OVCAR-4
[6] = tested on: SNB-19
[7] = tested on: ACHN
[8] = tested on: UO-31
[9] = tested on: HCT-15
[10] = tested on: COLO 205
[11] = tested on: HCC 2998
[12] = tested on: OVCAR-8
[13] = tested on: IGROV-1
[14] = tested on: UACC-62
[15] = tested on: SK-MEL-5
[16] = tested on: EKVX

SMILES | GI50 [1] | GI50 [2] | GI50 [3] | GI50 [4] | GI50 [5] | GI50 [6] | GI50 [7] | GI50 [8] | GI50 [9] [µM] | GI50 [10] | GI50 [11] | GI50 [12] | GI50 [13] | GI50 [14] | GI50 [15] | GI50 [16]
O=C(c1cc(=O)c2ccc(O)cc2o1)c1ccc(Cl)cc1Cl | 13.8 µM (inactive) | 3.15 µM (inactive) | 28.2 µM (inactive) | 7.35 µM (inactive) | 12 µM (inactive) | 49.1 µM (inactive) | 5.24 µM (inactive) | 5.92 µM (inactive) | 4.63 | 3.27 µM (inactive) | 9.75 µM (inactive) | 22.8 µM (inactive) | 17.7 µM (inactive) | 5.93 µM (inactive) | 20.4 µM (inactive) | 50.2 µM (inactive)
Cc1nc2c(n1C(C)(C)C)C(=O)c1ccccc1C2=O | 24.8 µM (inactive) | 41.5 µM (inactive) | > 100 µM (inactive) | 73.8 µM (inactive) | 92.9 µM (inactive) | > 100 µM (inactive) | 48.6 µM (inactive) | 37.2 µM (inactive) | 56.6 | 64.1 µM (inactive) | > 100 µM (inactive) | 56.8 µM (inactive) | 96.6 µM (inactive) | 44.3 µM (inactive) | 38.9 µM (inactive) | > 100 µM (inactive)
CC1=CC(C)(c2c[nH]c3ccccc23)CC(C)(C)c2c1[nH]c1ccccc21 (stereo unspecified) | 19.7 µM (inactive) | 15.2 µM (inactive) | 13.8 µM (inactive) | 9.55 µM (inactive) | 13.4 µM (inactive) | 26.5 µM (inactive) | 17.2 µM (inactive) | 13.2 µM (inactive) | – | – | 14.5 µM (inactive) | 13.7 µM (inactive) | 16.2 µM (inactive) | 15.2 µM (inactive) | – | 15.6 µM (inactive)
CC(C)(C)c1cc2c(OP(c3ccccc3)c3ccccc3)c(c1)Cc1cc(C(C)(C)C)cc(c1OP(c1ccccc1)c1ccccc1)Cc1cc(C(C)(C)C)cc(c1OP(c1ccccc1)c1ccccc1)Cc1cc(C(C)(C)C)cc(c1OP(c1ccccc1)c1ccccc1)C2 | > 5 µM (inactive) | > 5 µM (inactive) | > 5 µM (inactive) | > 5 µM (inactive) | > 5 µM (inactive) | > 5 µM (inactive) | > 5 µM (inactive) | > 5 µM (inactive) | > 5 | > 5 µM (inactive) | > 5 µM (inactive) | > 5 µM (inactive) | > 5 µM (inactive) | > 5 µM (inactive) | > 5 µM (inactive) | > 5 µM (inactive)
COc1ccc(/C=C(\NC(=O)c2ccccc2)c2nc3ccccc3[nH]2)cc1 | 35.6 µM (inactive) | – | 44 µM (inactive) | 42.4 µM (inactive) | 17.3 µM (inactive) | 37.3 µM (inactive) | 42.6 µM (inactive) | 22.4 µM (inactive) | 48.2 | 24 µM (inactive) | 41.9 µM (inactive) | 39.3 µM (inactive) | 30.5 µM (inactive) | 24 µM (inactive) | 14.8 µM (inactive) | 35.9 µM (inactive)
Cc1cccc(C(C)(C)C)c1NC(=O)C(=O)Cc1nc2ccccc2s1 | > 100 µM (inactive) | > 100 µM (inactive) | > 100 µM (inactive) | – | > 100 µM (inactive) | > 100 µM (inactive) | > 100 µM (inactive) | > 100 µM (inactive) | > 100 | > 100 µM (inactive) | > 100 µM (inactive) | > 100 µM (inactive) | > 100 µM (inactive) | > 100 µM (inactive) | > 100 µM (inactive) | 27.4 µM (inactive)
O=C(OCc1ccccc1)N1N=NC2C1C1CC(OCc3ccccc3)(OCc3ccccc3)C2O1 (stereo unspecified) | > 100 µM (inactive) | > 100 µM (inactive) | > 100 µM (inactive) | > 100 µM (inactive) | > 100 µM (inactive) | – | > 100 µM (inactive) | > 100 µM (inactive) | > 100 | > 100 µM (inactive) | > 100 µM (inactive) | – | > 100 µM (inactive) | > 100 µM (inactive) | > 100 µM (inactive) | –
C[C@@H](O)CCC(=O)c1ccoc1 | > 100 µM (inactive) | > 100 µM (inactive) | > 100 µM (inactive) | > 100 µM (inactive) | > 100 µM (inactive) | > 100 µM (inactive) | > 100 µM (inactive) | > 100 µM (inactive) | > 100 | > 100 µM (inactive) | > 100 µM (inactive) | > 100 µM (inactive) | > 100 µM (inactive) | > 100 µM (inactive) | > 100 µM (inactive) | > 100 µM (inactive)
Cc1noc2cccc(O)c12 | > 100 µM (inactive) | > 100 µM (inactive) | > 100 µM (inactive) | > 100 µM (inactive) | > 100 µM (inactive) | > 100 µM (inactive) | > 100 µM (inactive) | > 100 µM (inactive) | > 100 | > 100 µM (inactive) | > 100 µM (inactive) | > 100 µM (inactive) | > 100 µM (inactive) | > 100 µM (inactive) | > 100 µM (inactive) | > 100 µM (inactive)
CC1(Sc2ccccc2)CN(Cc2ccccc2)C1=O (stereo unspecified) | > 100 µM (inactive) | > 100 µM (inactive) | > 100 µM (inactive) | > 100 µM (inactive) | 88.5 µM (inactive) | > 100 µM (inactive) | > 100 µM (inactive) | 22.8 µM (inactive) | 75.2 | > 100 µM (inactive) | > 100 µM (inactive) | > 100 µM (inactive) | > 100 µM (inactive) | > 100 µM (inactive) | > 100 µM (inactive) | > 100 µM (inactive)
CC(C)(C)CC(C)(C)c1cc2c(O)c(c1)Cc1cc(C(C)(C)CC(C)(C)C)cc(c1O)Cc1cc(C(C)(C)CC(C)(C)C)cc(c1O)Cc1cc(C(C)(C)CC(C)(C)C)cc(c1O)Cc1cc(C(C)(C)CC(C)(C)C)cc(c1O)Cc1cc(C(C)(C)CC(C)(C)C)cc(c1O)Cc1cc(C(C)(C)CC(C)(C)C)cc(c1O)Cc1cc(C(C)(C)CC(C)(C)C)cc(c1O)C2 | > 100 µM (inactive) | – | > 100 µM (inactive) | > 100 µM (inactive) | > 100 µM (inactive) | > 100 µM (inactive) | > 100 µM (inactive) | > 100 µM (inactive) | > 100 | > 100 µM (inactive) | > 100 µM (inactive) | > 100 µM (inactive) | > 100 µM (inactive) | > 100 µM (inactive) | > 100 µM (inactive) | > 100 µM (inactive)
COc1ccc(C=O)c(N(C)C(=O)C(C)(C)C)c1 | > 100 µM (inactive) | > 100 µM (inactive) | > 100 µM (inactive) | > 100 µM (inactive) | > 100 µM (inactive) | > 100 µM (inactive) | > 100 µM (inactive) | > 100 µM (inactive) | > 100 | > 100 µM (inactive) | > 100 µM (inactive) | > 100 µM (inactive) | > 100 µM (inactive) | > 100 µM (inactive) | > 100 µM (inactive) | > 100 µM (inactive)
O=S(=O)(N/N=C/c1cccc(Cl)c1Cl)c1ccccc1 | 93.8 µM (inactive) | 68.7 µM (inactive) | > 100 µM (inactive) | 66.2 µM (inactive) | > 100 µM (inactive) | – | 55 µM (inactive) | 94.4 µM (inactive) | 98.2 | 89.7 µM (inactive) | > 100 µM (inactive) | 78.2 µM (inactive) | 77.4 µM (inactive) | > 100 µM (inactive) | 43.6 µM (inactive) | > 100 µM (inactive)
COc1ccc(C)cc1-c1cc(Sc2ccccc2)c(-c2cc(C)ccc2OC)o1 | > 31.6 µM (inactive) | > 100 µM (inactive) | > 31.6 µM (inactive) | > 31.6 µM (inactive) | > 31.6 µM (inactive) | > 31.6 µM (inactive) | > 31.6 µM (inactive) | > 31.6 µM (inactive) | > 31.6 | > 31.6 µM (inactive) | > 31.6 µM (inactive) | > 31.6 µM (inactive) | > 31.6 µM (inactive) | > 31.6 µM (inactive) | > 31.6 µM (inactive) | > 31.6 µM (inactive)
COc1cc(Nc2nc3cc(C)ccc3nc2-c2ccccc2)cc(OC)c1OC | 24.2 µM (inactive) | 27.2 µM (inactive) | 14.7 µM (inactive) | 29.8 µM (inactive) | 33 µM (inactive) | 57.4 µM (inactive) | 26.7 µM (inactive) | 17.2 µM (inactive) | 15.5 | 20.2 µM (inactive) | 12.3 µM (inactive) | 36.5 µM (inactive) | 63.8 µM (inactive) | 21.5 µM (inactive) | 19.2 µM (inactive) | 20.7 µM (inactive)
CN(C)c1n/c(=N/c2cccc(Cl)c2)ss1 | 17.1 µM (inactive) | 14.5 µM (inactive) | 12.9 µM (inactive) | 0.0405 µM (active) | 14.6 µM (inactive) | 35.9 µM (inactive) | 18.4 µM (inactive) | 38.4 µM (inactive) | 14.5 | – | 20.4 µM (inactive) | 12.9 µM (inactive) | 20.3 µM (inactive) | 10.8 µM (inactive) | 27.5 µM (inactive) | 23.7 µM (inactive)
COc1ccc(C(=O)C2CCC(C(=O)O)C2)cc1 (stereo unspecified) | > 100 µM (inactive) | > 100 µM (inactive) | > 100 µM (inactive) | > 100 µM (inactive) | > 100 µM (inactive) | > 100 µM (inactive) | > 100 µM (inactive) | > 100 µM (inactive) | > 100 | > 100 µM (inactive) | > 100 µM (inactive) | > 100 µM (inactive) | > 100 µM (inactive) | > 100 µM (inactive) | > 100 µM (inactive) | > 100 µM (inactive)
